“And” between values parts separate entries of the source, which are not always exact repeats. Equal values may be shown once.
Tests used:
[1] = target: amyloid β 1–42 peptide (Homo sapiens, UniProt P05067); test: Aβ-42 self-aggregation inhibition assay; format: biochemical; settings: read-out: inhibition of self-aggregation of Aβ1–42 monomers
[2] = target: EeAChE (Electrophorus electricus, UniProt O42275); test: AChE inhibition and enzyme kinetics, Ellman assay; format: biochemical, electric eel; settings: for IC50: IC50 (μM) ± SD EeAChE, Ellman assay
[3] = target: eqBChE (Equus caballus, UniProt P81908); test: BChE inhibition and enzyme kinetics, Ellman assay; format: biochemical, equine
[4] = target: T1, hBACE-1 (Homo sapiens, UniProt P56817); test: biochemical
[5] = in vitro; settings: pig, PAMPA, pH 7.4
[6] = target: T1, hBACE-1; settings: Lineweaver–Burk double-reciprocal plot
[7] = PAMPA–BBB
[8] = Lineweaver–Burk double-reciprocal plot

T1 sequence (P56817 46-501): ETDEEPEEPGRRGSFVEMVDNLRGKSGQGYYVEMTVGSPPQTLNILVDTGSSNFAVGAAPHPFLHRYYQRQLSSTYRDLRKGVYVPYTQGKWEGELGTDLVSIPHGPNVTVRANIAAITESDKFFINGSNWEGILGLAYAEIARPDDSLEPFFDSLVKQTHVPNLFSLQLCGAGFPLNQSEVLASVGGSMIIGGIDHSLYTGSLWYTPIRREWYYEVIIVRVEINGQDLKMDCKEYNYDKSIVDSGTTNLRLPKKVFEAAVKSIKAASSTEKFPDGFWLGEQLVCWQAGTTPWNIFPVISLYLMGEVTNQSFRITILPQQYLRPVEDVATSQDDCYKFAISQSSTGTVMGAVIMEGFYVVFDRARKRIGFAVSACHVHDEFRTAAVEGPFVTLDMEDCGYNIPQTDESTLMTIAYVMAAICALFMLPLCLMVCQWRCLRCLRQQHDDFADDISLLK
EeAChE, sequence (O42275 24-633): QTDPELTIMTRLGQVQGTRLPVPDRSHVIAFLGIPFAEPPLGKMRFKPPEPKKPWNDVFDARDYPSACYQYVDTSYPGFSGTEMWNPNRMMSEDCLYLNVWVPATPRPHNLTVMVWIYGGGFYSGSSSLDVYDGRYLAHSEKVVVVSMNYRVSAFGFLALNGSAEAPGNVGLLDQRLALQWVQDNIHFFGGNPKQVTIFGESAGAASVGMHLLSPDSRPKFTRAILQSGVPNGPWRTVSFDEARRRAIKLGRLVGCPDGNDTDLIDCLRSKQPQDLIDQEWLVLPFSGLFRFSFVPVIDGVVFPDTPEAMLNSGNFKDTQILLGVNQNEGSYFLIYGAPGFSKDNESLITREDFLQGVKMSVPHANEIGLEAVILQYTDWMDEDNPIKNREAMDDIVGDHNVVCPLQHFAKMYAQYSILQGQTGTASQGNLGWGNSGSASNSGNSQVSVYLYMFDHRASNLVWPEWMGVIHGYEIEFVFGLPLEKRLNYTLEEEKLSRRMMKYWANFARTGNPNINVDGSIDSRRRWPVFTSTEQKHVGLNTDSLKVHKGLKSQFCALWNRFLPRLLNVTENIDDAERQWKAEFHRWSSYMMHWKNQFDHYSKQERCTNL
eqBChE, sequence (P81908 whole entry): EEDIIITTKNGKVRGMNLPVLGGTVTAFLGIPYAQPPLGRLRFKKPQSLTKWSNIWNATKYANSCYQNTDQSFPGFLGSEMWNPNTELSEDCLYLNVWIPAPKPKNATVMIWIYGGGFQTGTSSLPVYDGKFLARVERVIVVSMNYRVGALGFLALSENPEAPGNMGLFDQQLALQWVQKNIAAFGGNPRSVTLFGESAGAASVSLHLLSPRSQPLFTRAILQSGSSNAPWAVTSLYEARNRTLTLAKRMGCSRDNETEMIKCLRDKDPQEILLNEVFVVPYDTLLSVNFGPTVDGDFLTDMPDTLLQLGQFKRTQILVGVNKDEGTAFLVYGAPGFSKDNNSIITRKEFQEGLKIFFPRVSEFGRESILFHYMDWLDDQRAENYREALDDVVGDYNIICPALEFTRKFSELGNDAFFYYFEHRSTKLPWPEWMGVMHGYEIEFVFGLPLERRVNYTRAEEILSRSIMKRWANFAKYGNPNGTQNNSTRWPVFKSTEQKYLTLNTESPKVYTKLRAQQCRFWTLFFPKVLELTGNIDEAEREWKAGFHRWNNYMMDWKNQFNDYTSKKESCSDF
amyloid β 1–42 peptide, sequence (P05067 672-713): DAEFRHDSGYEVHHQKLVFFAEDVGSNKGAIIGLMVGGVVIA

Row | Structure (SMILES) | IC50 [2] | IC50 [3] [µM] | IC50 [4] [µM] | also measured
1 | COc1cc(/C=C/C(=O)CC(=O)/C=C/c2ccc(O)c(OC)c2)ccc1O [curcumin, reference compound] |  |  |  | inhibition at 10 µM [1]: 81%
2 | COc1cc2c(C)cc(=O)oc2cc1OCc1cn(Cc2ccccc2C(F)(F)F)nn1 [16c, 6-Methoxy-4-methyl-7-((1-(2-(trifluoromethyl)benzyl)-1H-1,2,3-triazol-4-yl)methoxy)-2H-chromen-2-one] | 141.7 ± 0.89 µM | 57.5 ± 1.42 | 156.1 ± 1.42 | 
3 | O=c1cc(OCc2cn(Cc3ccc([N+](=O)[O-])cc3)nn2)c2ccccc2o1 [8p, 4-((1-(4-Nitrobenzyl)-1H-1,2,3-triazol-4-yl)methoxy)-2H-chromen-2-one] | 200.4 ± 0.85 µM | 220 ± 3.04 | 156 ± 1.09 | 
4 | COc1cc(Cn2cc(COc3ccc4ccc(=O)oc4c3C(C)=O)nn2)cc(OC)c1 [10b, 8-Acetyl-7-((1-(3,5-dimethoxybenzyl)-1H-1,2,3-triazol-4-yl)methoxy)-2H-chromen-2-one] | 2.57 ± 0.31 µM | 3.26 ± 0.13 |  | Papp [5]: 5.68 ± 1.1 ×10⁻⁶ cm/s; Ki [2]: 0.27 µM; fold difference in AChE inhibition activity of 10b vs 19b ([2]; 10b vs 19b): 20 fold; mode of inhibition, AChE [2, 8]: noncompetitive; inhibition at 10 µM [1]: 37%; Ki [3]: 3.5 µM; mode of inhibition, BChE [3, 8]: mixed type; Ki [4]: 7 µM; mode of inhibition, BACE-1 [6]: mixed type; prediction of CNS permeation [7]: CNS+
5 | O=c1cc(OCc2cn(Cc3ccccc3C(F)(F)F)nn2)c2ccccc2o1 [8i, 4-((1-(2-(Trifluoromethyl)benzyl)-1H-1,2,3-triazol-4-yl)methoxy)-2H-chromen-2-one] | 4.83 ± 0.11 µM | 7.04 ± 0.77 | 10.2 ± 0.79 | 
6 | COc1cc(Cn2cc(COc3cc(=O)oc4ccccc34)nn2)cc(OC)c1 [8o, 4-((1-(3,5-Dimethoxybenzyl)-1H-1,2,3-triazol-4-yl)methoxy)-2H-chromen-2-one] | 2.76 ± 0.04 µM | 3.3 ± 0.01 | 9.79 ± 1.36 | 
7 | COc1cc(Cn2cc(COc3cc4oc(=O)cc(C)c4cc3OCc3cn(Cc4cc(OC)cc(OC)c4)nn3)nn2)cc(OC)c1 [13b, 6,7-Bis((1-(3,5-dimethoxybenzyl)-1H-1,2,3-triazol-4-yl)methoxy)-4-methyl-2H-chromen-2-one] | 168 ± 6.7 µM | 4.7 ± 0.67 | 115 ± 3.86 | 
8 | O=c1ccc2ccc(OCc3cn(Cc4ccccc4C(F)(F)F)nn3)cc2o1 [19c, 7-((1-(2-(Trifluoromethyl)benzyl)-1H-1,2,3-triazol-4-yl)methoxy)-2H-chromen-2-one] | 20.6 ± 0.95 µM | 77.3 ± 6.38 | 17.7 ± 0.65 | 
9 | O=c1cc(OCc2cn(Cc3ccc(C(F)(F)F)cc3)nn2)c2ccccc2o1 [8j, 4-((1-(4-(Trifluoromethyl)benzyl)-1H-1,2,3-triazol-4-yl)methoxy)-2H-chromen-2-one] | 23.3 ± 2.86 µM | 209 ± 2.11 | 19.5 ± 0.66 | 
10 | COc1cccc(Cn2cc(COc3ccc4ccc(=O)oc4c3)nn2)c1 [19a, 7-((1-(3-Methoxybenzyl)-1H-1,2,3-triazol-4-yl)methoxy)-2H-chromen-2-one] | 3.6 µM and 3.62 µM | 2.8 ± 0.22 | 126 ± 3.92 | 
